Laboratory results reported in US8247211B2, “Glycopeptide antibiotics” (American Cyanamid Company, priority 2001, dated 2012).
In brackets after ≈: the same amount, converted by molar mass.

What was measured:
Assay in all cases: In vitro antibacterial evaluation: minimum inhibitory concentration (MIC), broth dilution method
Assay type in all cases: cell-based
Enterococcus sp. = tested on: Enterococcus sp.
How it was run: (§1)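 MIC by broth dilution in Mueller-Hinton II medium following NCCLS M7-A2. Inoculum was 5×10^5 CFU/mL and antibiotic was tested over 64-0.06 μg/mL. Gram-positive panel included clinical isolates resistant to methicillin, penicillin and/or vancomycin.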

Streptococcus sp. = tested on: Streptococcus sp.
How it was run: as §1

Staphylococcus sp. = conditions: broth dilution, 18 hours at 35° C.
How it was run: as §1

Escherichia coli = tested on: Escherichia coli
How it was run: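 Test strains, among them recent clinical isolates carrying methicillin, penicillin and/or vancomycin resistance, were inoculated at 5×10^5 CFU/mL. A broth dilution series spanning 64-0.06 μg/mL in Muller-Hinton II […] (NCCLS M7-A2) defined the MIC as the lowest growth-inhibiting concentration.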

MIC Enterococcus faecalis (ATCC 29212) (Enterococcus sp.; strain ATCC 29212): 8 µg/mL (≈ 5.49 µM)
MIC Enterococcus faecalis (GC 2242) (Enterococcus sp.; strain GC 2242): 4 µg/mL (≈ 2.74 µM)
MIC Enterococcus faecium (GC 2243) (Enterococcus sp.; strain GC 2243): 4 µg/mL (≈ 2.74 µM)
MIC Enterococcus faecalis (GC 2691) (Enterococcus sp.; strain GC 2691): 8 µg/mL (≈ 5.49 µM)
MIC Enterococcus faecalis (GC 3059) (Enterococcus sp.; strain GC 3059): 8 µg/mL (≈ 5.49 µM)
MIC Enterococcus faecalis (GC 4552) (Enterococcus sp.; strain GC 4552): 8 µg/mL (≈ 5.49 µM)
MIC Enterococcus faecalis (GC 4553) (Enterococcus sp.; strain GC 4553): 8 µg/mL (≈ 5.49 µM)
MIC Enterococcus faecalis (GC 4554) (Enterococcus sp.; strain GC 4554): 8 µg/mL (≈ 5.49 µM)
MIC Enterococcus faecium (GC 4556) (Enterococcus sp.; strain GC 4556): 4 µg/mL (≈ 2.74 µM)
MIC Enterococcus faecium (GC 4557) (Enterococcus sp.; strain GC 4557): 2 µg/mL (≈ 1.37 µM)
MIC Enterococcus avium (GC 4558) (Enterococcus sp.; strain GC 4558): 8 µg/mL (≈ 5.49 µM)
MIC Enterococcus faecalis (GC 6189) (Enterococcus sp.; strain GC 6189): 4 µg/mL (≈ 2.74 µM)
MIC Streptococcus pneumoniae (ATCC 6301) (Streptococcus sp.; strain ATCC 6301): <0.06 µg/mL
MIC Streptococcus pneumoniae (GC 1894) (Streptococcus sp.; strain GC 1894): <0.06 µg/mL
MIC Streptococcus pyogenes (GC 4563) (Streptococcus sp.; strain GC 4563): 0.25 µg/mL (≈ 0.171 µM)
MIC Streptococcus agalactiae (GC 4564) (Streptococcus sp.; strain GC 4564): 0.5 µg/mL (≈ 0.343 µM)
MIC Streptococcus pneumoniae (GC 4565) (Streptococcus sp.; strain GC 4565): <0.06 µg/mL
MIC Coagulase Negative Staphylococcus (GC 4547) (Staphylococcus sp.; 5×10^5 CFU/mL): 1 µg/mL (≈ 0.686 µM)
MIC Coagulase Negative Staphylococcus (GC 4548) (Staphylococcus sp.; 5×10^5 CFU/mL): 0.5 µg/mL (≈ 0.343 µM)
MIC Coagulase Negative Staphylococcus (GC 4549) (Staphylococcus sp.; 5×10^5 CFU/mL): 0.5 µg/mL (≈ 0.343 µM)
MIC Coagulase Negative Staphylococcus (GC 4551) (Staphylococcus sp.; 5×10^5 CFU/mL): 2 µg/mL (≈ 1.37 µM)
MIC Coagulase Negative Staphylococcus (GC 6257) (Staphylococcus sp.; 5×10^5 CFU/mL): 0.5 µg/mL (≈ 0.343 µM)
MIC Staphylococcus aureus (ATCC 29213) (Staphylococcus sp.; 5×10^5 CFU/mL): 2 µg/mL (≈ 1.37 µM)
MIC Staphylococcus aureus (GC 1131) (Staphylococcus sp.; 5×10^5 CFU/mL): 2 µg/mL (≈ 1.37 µM)
MIC Staphylococcus aureus (GC 3051) (Staphylococcus sp.; 5×10^5 CFU/mL): 2 µg/mL (≈ 1.37 µM)
MIC Staphylococcus aureus (GC 3053) (Staphylococcus sp.; 5×10^5 CFU/mL): 4 µg/mL (≈ 2.74 µM)
MIC Staphylococcus aureus (GC 4541) (Staphylococcus sp.; 5×10^5 CFU/mL): 2 µg/mL (≈ 1.37 µM)
MIC Staphylococcus aureus (GC 4542) (Staphylococcus sp.; 5×10^5 CFU/mL): 2 µg/mL (≈ 1.37 µM)
MIC Staphylococcus aureus (GC 4544) (Staphylococcus sp.; 5×10^5 CFU/mL): 2 µg/mL (≈ 1.37 µM)
MIC Staphylococcus aureus (GC 4545) (Staphylococcus sp.; 5×10^5 CFU/mL): 2 µg/mL (≈ 1.37 µM)
MIC Staphylococcus aureus-SMITH (GC 4543) (Staphylococcus sp.; 5×10^5 CFU/mL): 1 µg/mL (≈ 0.686 µM)
MIC Staphylococcus aureus (ATCC 29213) (Staphylococcus sp.; strain ATCC 29213): 2 µg/mL (≈ 1.37 µM)
MIC Staphylococcus aureus (GC 1131) (Staphylococcus sp.; strain GC 1131): 2 µg/mL (≈ 1.37 µM)
MIC Staphylococcus aureus (GC 3051) (Staphylococcus sp.; strain GC 3051): 2 µg/mL (≈ 1.37 µM)
MIC Staphylococcus aureus (GC 3053) (Staphylococcus sp.; strain GC 3053): 4 µg/mL (≈ 2.74 µM)
MIC Staphylococcus aureus (GC 4541) (Staphylococcus sp.; strain GC 4541): 2 µg/mL (≈ 1.37 µM)
MIC Staphylococcus aureus (GC 4542) (Staphylococcus sp.; strain GC 4542): 2 µg/mL (≈ 1.37 µM)
MIC Staphylococcus aureus-SMITH (GC 4543) (Staphylococcus sp.; strain GC 4543): 1 µg/mL (≈ 0.686 µM)
MIC Staphylococcus aureus (GC 4544) (Staphylococcus sp.; strain GC 4544): 2 µg/mL (≈ 1.37 µM)
MIC Staphylococcus aureus (GC 4545) (Staphylococcus sp.; strain GC 4545): 2 µg/mL (≈ 1.37 µM)
MIC Coagulase Negative Staphylococcus (GC 4547) (Staphylococcus sp.; strain GC 4547): 1 µg/mL (≈ 0.686 µM)
MIC Coagulase Negative Staphylococcus (GC 4548) (Staphylococcus sp.; strain GC 4548): 0.5 µg/mL (≈ 0.343 µM)
MIC Coagulase Negative Staphylococcus (GC 4549) (Staphylococcus sp.; strain GC 4549): 0.5 µg/mL (≈ 0.343 µM)
MIC Coagulase Negative Staphylococcus (GC 4551) (Staphylococcus sp.; strain GC 4551): 2 µg/mL (≈ 1.37 µM)
MIC Coagulase Negative Staphylococcus (GC 6257) (Staphylococcus sp.; strain GC 6257): 0.5 µg/mL (≈ 0.343 µM)
MIC Escherichia coli (ATCC 25922) (Escherichia coli; strain ATCC 25922): 64 µg/mL (≈ 43.9 µM)
MIC Escherichia coli (GC 4559) (Escherichia coli; strain GC 4559): 64 µg/mL (≈ 43.9 µM)
Compound: COc1cc(C2OCC3OC(OC4C(CO)OC(Oc5ccc(CC6NC(=O)C(C(C)c7ccccc7)NC(=O)CNC(=O)C(CO)NC(=O)C(C(O)C7CNC(=N)N7C7OC(CO)C(O)C(O)C7O)NC(=O)C(C(O)C7CNC(=N)N7)NC6=O)cc5)C(O)C4O)C(O)C(O)C3O2)ccc1[N+](=O)[O-] (stereo not drawn) [Example 153, Cyclo[glycyl-β-methylphenylalanyl-O-[4-O-[4,6-O-(3-methoxy-4-nitrobenzylidene)hexopyranosyl]hexopyranosyl]tyrosyl-3-(2-iminoimidazolidin-4-yl)seryl-3-(3-hexopyranosyl-2-iminoimidazolidin-4-yl)serylseryl]]
MIC Staphylococcus haemolyticus (GC 4546) (Staphylococcus sp.; 5×10^5 CFU/mL): 1 µg/mL (≈ 0.686 µM)
MIC Staphylococcus haemolyticus (GC 4546) (Staphylococcus sp.; strain GC 4546): 1 µg/mL (≈ 0.686 µM)
